Results: ChEMBL document CHEMBL1201862, “PubChem BioAssay data set” (2004)
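Following 48 hours of exposure in 96-well plates, responses at five concentrations were used to interpolate endpoints linearly. Here, GI50 denotes the concentration required for 50% inhibition of growth.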 Calls of active or inactive are those of the source. Rule as the data show it: active = GI50 up to about 1.1 µM and inactive = higher.

Experiments:
Experiment in all cases: NCI tumour cell line growth inhibition, 48 h
SNB-19 = system: SNB-19
786-0 = system: 786-0
A498 = system: A498
LOX IMVI = system: LOX IMVI
HOP-18 = system: HOP-18
NCI-H23 = system: NCI-H23
NCI-H226 = system: NCI-H226
SK-MEL-2 = system: SK-MEL-2
OVCAR-5 = system: OVCAR-5
SN12C = system: SN12C
MOLT-4 = system: MOLT-4
ACHN = system: ACHN
SF-295 = system: SF-295
COLO 205 = system: COLO 205
IGROV-1 = system: IGROV-1
SW-620 = system: SW-620
HCT-15 = system: HCT-15
HCT-116 = system: HCT-116
SK-OV-3 = system: SK-OV-3
HOP-92 = system: HOP-92
OVCAR-3 = system: OVCAR-3
OVCAR-4 = system: OVCAR-4
M19-MEL = system: M19-MEL
SNB-75 = system: SNB-75
DMS-114 = system: DMS-114
Malme-3M = system: Malme-3M
KM-20L2 = system: KM-20L2
UACC-62 = system: UACC-62
CCRF-CEM = system: CCRF-CEM
NCI-H460 = system: NCI-H460
DMS-273 = system: DMS-273
RXF 393 = system: RXF 393
K562 = system: K562
KM12 = system: KM12
XF498 = system: XF498
UACC-257 = system: UACC-257
LXFL 529 = system: LXFL 529
SF-539 = system: SF-539
SK-MEL-28 = system: SK-MEL-28
U-251 = system: U-251
OVCAR-8 = system: OVCAR-8
A549 = system: A549
SNB-78 = system: SNB-78
SF-268 = system: SF-268
EKVX = system: EKVX
NCI-H522 = system: NCI-H522
M14 = system: M14
RPMI-8226 = system: RPMI-8226
HT-29 = system: HT-29
UO-31 = system: UO-31
TK-10 = system: TK-10
RXF 631 = system: RXF 631
DLD-1 = system: DLD-1
HOP-62 = system: HOP-62
HL-60 = system: HL-60
HCC 2998 = system: HCC 2998
SK-MEL-5 = system: SK-MEL-5
CAKI-1 = system: CAKI-1

With `CC(c1ccccc1)C(O)S(=O)(=O)O` (stereo not given) the GI50 (SNB-19) was > 100 µM (inactive), the GI50 (786-0) was > 100 µM (inactive) and the GI50 (A498) was > 100 µM (inactive). The GI50 (LOX IMVI) was 36.8 µM (inactive), the GI50 (HOP-18) was > 100 µM (inactive) and the GI50 (NCI-H23) was > 100 µM (inactive). For the same molecule, the GI50 (NCI-H226) was > 100 µM (inactive), the GI50 (SK-MEL-2) was > 100 µM (inactive) and the GI50 (OVCAR-5) was > 100 µM (inactive). For the same molecule, the GI50 (SN12C) was > 100 µM (inactive), the GI50 (MOLT-4) was > 100 µM (inactive) and the GI50 (ACHN) was > 100 µM (inactive). The GI50 (SF-295) was > 100 µM (inactive), the GI50 (COLO 205) was > 100 µM (inactive) and the GI50 (IGROV-1) was > 100 µM (inactive). The GI50 (SW-620) was > 100 µM (inactive), the GI50 (HCT-15) was > 100 µM and the GI50 (HCT-116) was > 100 µM (inactive). For the same molecule, the GI50 (SK-OV-3) was > 100 µM (inactive), the GI50 (HOP-92) was > 100 µM (inactive) and the GI50 (OVCAR-3) was > 100 µM (inactive). The GI50 (OVCAR-4) was > 100 µM (inactive), the GI50 (M19-MEL) was > 100 µM (inactive) and the GI50 (SNB-75) was 43.7 µM (inactive). The GI50 (DMS-114) was 98.9 µM (inactive), the GI50 (Malme-3M) was > 100 µM (inactive) and the GI50 (KM-20L2) was > 100 µM (inactive). The GI50 (UACC-62) was > 100 µM (inactive), the GI50 (CCRF-CEM) was > 100 µM (inactive) and the GI50 (NCI-H460) was 88.3 µM (inactive). For the same molecule, the GI50 (DMS-273) was > 100 µM (inactive), the GI50 (RXF 393) was > 100 µM (inactive) and the GI50 (K562) was > 10 µM (inactive). For the same molecule, the GI50 (KM12) was > 100 µM (inactive), the GI50 (XF498) was > 100 µM (inactive) and the GI50 (UACC-257) was > 100 µM (inactive). The GI50 (LXFL 529) was > 100 µM (inactive), the GI50 (SF-539) was > 100 µM (inactive) and the GI50 (SK-MEL-28) was > 100 µM (inactive). For the same molecule, the GI50 (U-251) was > 100 µM (inactive), the GI50 (OVCAR-8) was > 100 µM (inactive) and the GI50 (A549) was > 100 µM (inactive). The GI50 (SNB-78) was > 100 µM (inactive), the GI50 (SF-268) was > 100 µM (inactive) and the GI50 (EKVX) was > 100 µM (inactive). The GI50 (NCI-H522) was > 100 µM (inactive), the GI50 (M14) was > 100 µM (inactive) and the GI50 (RPMI-8226) was > 100 µM (inactive). For the same molecule, the GI50 (HT-29) was > 100 µM (inactive), the GI50 (UO-31) was > 100 µM (inactive) and the GI50 (TK-10) was > 100 µM (inactive). The GI50 (RXF 631) was > 100 µM (inactive).

In the case of `COC(=O)CCC(NC(=S)N/N=C(\C)c1ccco1)C(=O)OC` (stereo not given), the GI50 (SNB-19) is reported as > 100 µM (inactive), the GI50 (786-0) is reported as > 100 µM (inactive) and the GI50 (A498) is reported as > 100 µM (inactive). The GI50 (LOX IMVI) was > 100 µM (inactive), the GI50 (HOP-18) was > 100 µM (inactive) and the GI50 (NCI-H23) was > 100 µM (inactive). The GI50 (NCI-H226) was > 100 µM (inactive), the GI50 (DLD-1) was > 100 µM (inactive) and the GI50 (SK-MEL-2) was > 100 µM (inactive). The GI50 (OVCAR-5) was > 100 µM (inactive), the GI50 (SN12C) was > 100 µM (inactive) and the GI50 (ACHN) was > 100 µM (inactive). The GI50 (SF-295) was > 100 µM (inactive), the GI50 (COLO 205) was > 100 µM (inactive) and the GI50 (IGROV-1) was > 100 µM (inactive). The GI50 (SW-620) was > 100 µM (inactive), the GI50 (HCT-15) was > 100 µM and the GI50 (HCT-116) was > 100 µM (inactive). The GI50 (HOP-62) was > 100 µM (inactive), the GI50 (SK-OV-3) was > 100 µM (inactive) and the GI50 (HL-60) was > 100 µM (inactive). The GI50 (OVCAR-3) was > 100 µM (inactive), the GI50 (OVCAR-4) was > 100 µM (inactive) and the GI50 (M19-MEL) was > 100 µM (inactive). For the same molecule, the GI50 (SNB-75) was > 100 µM (inactive), the GI50 (DMS-114) was > 100 µM (inactive) and the GI50 (Malme-3M) was > 100 µM (inactive). The GI50 (KM-20L2) was > 100 µM (inactive), the GI50 (UACC-62) was > 100 µM (inactive) and the GI50 (CCRF-CEM) was > 100 µM (inactive). The GI50 (NCI-H460) was > 100 µM (inactive), the GI50 (DMS-273) was > 100 µM (inactive) and the GI50 (RXF 393) was > 100 µM (inactive). The GI50 (HCC 2998) was > 100 µM (inactive), the GI50 (K562) was > 100 µM (inactive) and the GI50 (KM12) was > 100 µM (inactive). For the same molecule, the GI50 (XF498) was > 100 µM (inactive), the GI50 (SK-MEL-5) was > 100 µM (inactive) and the GI50 (UACC-257) was > 100 µM (inactive). For the same molecule, the GI50 (LXFL 529) was > 100 µM (inactive), the GI50 (SF-539) was > 100 µM (inactive) and the GI50 (SK-MEL-28) was > 100 µM (inactive). The GI50 (U-251) was > 100 µM (inactive), the GI50 (OVCAR-8) was > 100 µM (inactive) and the GI50 (A549) was > 100 µM (inactive). The GI50 (SNB-78) was > 100 µM (inactive), the GI50 (SF-268) was > 100 µM (inactive) and the GI50 (EKVX) was > 100 µM (inactive). The GI50 (NCI-H522) was > 100 µM (inactive), the GI50 (M14) was > 100 µM (inactive) and the GI50 (HT-29) was > 100 µM (inactive). The GI50 (UO-31) was > 100 µM (inactive), the GI50 (TK-10) was > 100 µM (inactive) and the GI50 (RXF 631) was > 100 µM (inactive).

With `COc1c(Sc2ccccc2)cc(Sc2ccccc2)c2cccnc12` the GI50 (SNB-19) was 31.8 µM (inactive), the GI50 (786-0) was 20.2 µM (inactive) and the GI50 (A498) was 29.1 µM (inactive). For the same molecule, the GI50 (LOX IMVI) was 17.6 µM (inactive), the GI50 (HOP-18) was 0.0263 µM (active) and the GI50 (NCI-H23) was 19.5 µM (inactive). The GI50 (CAKI-1) was 12.9 µM (inactive), the GI50 (DLD-1) was 27.9 µM (inactive) and the GI50 (SK-MEL-2) was 17.6 µM (inactive). The GI50 (OVCAR-5) was 40.2 µM (inactive), the GI50 (SN12C) was 28.2 µM (inactive) and the GI50 (MOLT-4) was 19.5 µM (inactive). The GI50 (ACHN) was 26.8 µM (inactive), the GI50 (SF-295) was 17.3 µM (inactive) and the GI50 (COLO 205) was 19.6 µM (inactive). For the same molecule, the GI50 (IGROV-1) was 46.1 µM (inactive), the GI50 (SW-620) was 39.2 µM (inactive) and the GI50 (HCT-15) was 15.4 µM. The GI50 (HCT-116) was 28.9 µM (inactive), the GI50 (HOP-62) was 34.9 µM (inactive) and the GI50 (SK-OV-3) was > 100 µM (inactive). The GI50 (OVCAR-3) was 20.9 µM (inactive), the GI50 (OVCAR-4) was 16.2 µM (inactive) and the GI50 (M19-MEL) was 28.9 µM (inactive). For the same molecule, the GI50 (SNB-75) was 19.5 µM (inactive), the GI50 (DMS-114) was 24.1 µM (inactive) and the GI50 (Malme-3M) was 15.1 µM (inactive). The GI50 (KM-20L2) was 21.2 µM (inactive), the GI50 (UACC-62) was 18.2 µM (inactive) and the GI50 (CCRF-CEM) was 20 µM (inactive). For the same molecule, the GI50 (NCI-H460) was 20.2 µM (inactive), the GI50 (DMS-273) was 20 µM (inactive) and the GI50 (RXF 393) was 11.8 µM (inactive). The GI50 (HCC 2998) was 41.9 µM (inactive), the GI50 (K562) was 23.7 µM (inactive) and the GI50 (KM12) was 24.4 µM (inactive). For the same molecule, the GI50 (XF498) was 17.7 µM (inactive), the GI50 (SK-MEL-5) was 16.4 µM (inactive) and the GI50 (UACC-257) was 18.2 µM (inactive). The GI50 (LXFL 529) was 30.8 µM (inactive), the GI50 (SF-539) was 26.2 µM (inactive) and the GI50 (SK-MEL-28) was 35.9 µM (inactive). The GI50 (U-251) was 29.2 µM (inactive), the GI50 (OVCAR-8) was 27.4 µM (inactive) and the GI50 (A549) was 24 µM (inactive). The GI50 (SNB-78) was 34 µM (inactive), the GI50 (SF-268) was 37.3 µM (inactive) and the GI50 (EKVX) was 28.2 µM (inactive). The GI50 (M14) was 27 µM (inactive), the GI50 (RPMI-8226) was 17.6 µM (inactive) and the GI50 (HT-29) was 24.9 µM (inactive). For the same molecule, the GI50 (UO-31) was 19.1 µM (inactive), the GI50 (TK-10) was 23.2 µM (inactive) and the GI50 (RXF 631) was 27.9 µM (inactive).
